Like-named read-outs stand apart in the source and are kept apart here.
Assay: Pharmacokinetics after single topical application in rats (plasma, tendon, skin)
Type: in vivo, rat
Details: for AUC(0-t) / Cmax / Tmax: topical or ocular; for Kp: tendon and plasma
Procedure: The compound 175 formulation was applied once topically to each ankle of the hind leg of each animal at 60 μL volume (30 μL/cm^2×2 cm^2) over the area of the Achilles tendon.
Blood samples (˜0.5 mL) were collected via cardiac puncture, into tubes containing K2EDTA as anticoagulant, at 1, 2, 4, 7 and 24 hours post-dose from 2 animals per timepoint (n=2). Plasma was harvested and frozen at −80° C. for bioanalysis.
The Achilles tendons from both ankles were collected following euthanasia at 1, 2, 4, 7 and 24 hours post-dose from 2 animals per timepoint (n=4) from all groups. Skin tissue samples were collected from the dose-site at 7 and 24 hours post-dose from 2 animals per timepoint (n=4) in Group 2. Tissues were frozen at −80° C. for bioanalysis. Blood and tissue collection schedule is outlined in Table 8 below.
Skin tissue samples were processed using the following procedures: 1) Weigh tissue and homogenize using cryoPrep (Covaris); 2) Add 9× volume of Acetonitrile:Methanol (70:30) and vortex for one hour; 3) Aliquot 100 μL of tissue homogenate into 96 microtube polypropylene plate; 4) Add 10 μL of working standard to each standard; 5) Add 10 μL of methanol in all samples and blanks; 6) Add 10 μL of internal standard (IS) to all tubes except blanks; 7) Spin in centrifuge at 3000 rpm for 10 minutes; and 8) Transfer 100 μL of supernatant into 96-well plate containing 150 μL of water. Cap and vortex for LC/MS/MS analysis.
The chromatograms of the samples were integrated and calibrated using Analyst 1.6.2 (AB Sciex, Redwood City, Calif.). Linear regression with 1/x^2 weighting and internal standardization was used for standard calibration, with an acceptance criterion of ±30% of nominal standard concentration. The lower limit of quantitation (LLOQ) was 2.00 ng/mL (plasma), 6.00 ng/g (tendon) and 25.0 ng/g (skin). Pharmacokinetic parameters were estimated by noncompartmental analysis from individual concentration versus time profiles using Pheonix WinNonlin version 6.3 (Certara, Inc., Princeton, N.J.). The time to maximum concentration (tmax) and the maximum concentration (Cmax) were determined based on measured plasma and tissue concentrations. The area under the curve (AUC0-last) was calculated using the linear trapezoidal rule.

[1] = Tendon, Group 1, 1 mg/mL, 1% BA, single topical
[2] = Tendon, Group 2, 10 mg/mL, 1% BA, single topical
[3] = Tendon, Group 3, 10 mg/mL, no preservative (0.5% Tween 80), single topical
[4] = male, Sprague Dawley, rat, plasma, 1 mg/mL, Plasma, Group 1, 1 mg/mL, 1% BA, single topical
[5] = male, Sprague Dawley, rat, plasma, 10 mg/mL, Plasma, Group 2, 10 mg/mL, 1% BA, single topical
[6] = male, Sprague Dawley, rat, plasma, 10 mg/mL, Plasma, Group 3, 10 mg/mL, no preservative (0.5% Tween 80), single topical
[7] = male, Sprague Dawley, rat, tendon, 1 mg/mL, Tendon, Group 1, 1 mg/mL, 1% BA, single topical
[8] = male, Sprague Dawley, rat, tendon, 10 mg/mL, Tendon, Group 2, 10 mg/mL, 1% BA, single topical
[9] = male, Sprague Dawley, rat, tendon, 10 mg/mL, Tendon, Group 3, 10 mg/mL, no preservative (0.5% Tween 80), single topical

plasma exposure of Group 3 relative to Group 2 (10 mg/mL without BA (Tween 80) vs 10 mg/mL with BA): ~0.2 ×
tendon exposure of Group 3 relative to Group 2 (10 mg/mL without BA vs 10 mg/mL with BA): ~4 ×
skin concentration relative to tendon concentrations (7 and 24 hours post-dose, Group 2): roughly 1000 ×
increase in tendon AUC(0-last) for a 10× dose-increment (Group 2 vs Group 1, formulations containing BA): 3.4 ×
last (Plasma, Group 1, 1 mg/mL, 1% BA, single topical): 1.00 h
last (Plasma, Group 2, 10 mg/mL, 1% BA, single topical): 7.00 h
last (Plasma, Group 3, 10 mg/mL, no preservative (0.5% Tween 80), single topical): 7.00 h
last (Skin, Group 2, 10 mg/mL, 1% BA, single topical): 24.0 h
AUC(0-last) [1]: 2164 ng·h/g
last [1]: 24.0 h
AUC(0-last) [2]: 7270 ng·h/g
last [2]: 24.0 h
AUC(0-last) [3]: 28077 ng·h/g
last [3]: 24.0 h
AUC(0-t) [4]: 0.65 ng·h/mL
Cmax [4]: 1.3 ng/mL
Tmax [4]: 1 h
AUC(0-t) [5]: 36.1 ng·h/mL
Cmax [5]: 10.6 ng/mL
Tmax [5]: 4 h
AUC(0-t) [6]: 6.79 ng·h/mL
Cmax [6]: 1.94 ng/mL
Tmax [6]: 7 h
Tmax (male, Sprague Dawley, rat, skin, 10 mg/mL, Skin, Group 2, 10 mg/mL, 1% BA, single topical): 7 h
Cmax (male, Sprague Dawley, rat, skin, 10 mg/mL, Skin, Group 2, 10 mg/mL, 1% BA, above quantitation limit (AQL > 25000 ng/g), reported as estimated): 209000 ng/g
concentration at 7 h (male, Sprague Dawley, rat, skin, topical, 7 hours post-dose, Group 2, 10 mg/mL containing BA, above quantitation limit, estimated): 209000 ng/g
concentration at 24 h (male, Sprague Dawley, rat, skin, topical, 24 hours post-dose, Group 2, 10 mg/mL containing BA, above quantitation limit, estimated): 113000 ng/g
Kp (male, Sprague Dawley, rat, topical, 1 mg/mL, Tendon to plasma, Group 1, 1 mg/mL, 1% BA, read-out: Tissue/Plasma AUC Ratio): 3330
Kp (male, Sprague Dawley, rat, topical, 10 mg/mL, Tendon to plasma, Group 2, 10 mg/mL, 1% BA, read-out: Tissue/Plasma AUC Ratio): 202
Kp (male, Sprague Dawley, rat, topical, 10 mg/mL, Tendon to plasma, Group 3, 10 mg/mL without BA, read-out: Tissue/Plasma AUC Ratio): 4140
Kp (male, Sprague Dawley, rat, topical, all dose groups, single topical administration, read-out: tendon to plasma ratios, range across groups): 202 to 4140
Cmax [7]: 519 ng/g
Tmax [7]: 1 h
Cmax [8]: 1930 ng/g
Tmax [8]: 1 h
Cmax [9]: 7050 ng/g
Tmax [9]: 1 h
Compound: COc1ccc(NC(=O)c2n[nH]c3ccc(-c4cncc(CN5CCCCC5)c4)cc23)cn1 [compound 175, N-(6-Methoxypyridin-3-yl)-5-(5-(piperidin-1-ylmethyl)pyridin-3-yl)-1H-indazole-3-carboxamide]

From patent US10806726B2, “Methods of using indazole-3-carb oxamides and their use as Wnt/B-catenin signaling pathway inhibitors” (Samumed, LLC, priority 2016, dated 2020)
